This passage reports IC50 results from patent US20120094995A1, “2-AZA-BICYCLO[2.2.1]HEPTANE COMPOUNDS AND USES THEREOF” (ASTRAZENECA AB, priority 2009, published 2012).

The target of one assay is T1, human GlyT1b (Homo sapiens, UniProt P48067).
T1 construct: expressed in transfected cells
T1 sequence (P48067 1-652 isoform P48067-3): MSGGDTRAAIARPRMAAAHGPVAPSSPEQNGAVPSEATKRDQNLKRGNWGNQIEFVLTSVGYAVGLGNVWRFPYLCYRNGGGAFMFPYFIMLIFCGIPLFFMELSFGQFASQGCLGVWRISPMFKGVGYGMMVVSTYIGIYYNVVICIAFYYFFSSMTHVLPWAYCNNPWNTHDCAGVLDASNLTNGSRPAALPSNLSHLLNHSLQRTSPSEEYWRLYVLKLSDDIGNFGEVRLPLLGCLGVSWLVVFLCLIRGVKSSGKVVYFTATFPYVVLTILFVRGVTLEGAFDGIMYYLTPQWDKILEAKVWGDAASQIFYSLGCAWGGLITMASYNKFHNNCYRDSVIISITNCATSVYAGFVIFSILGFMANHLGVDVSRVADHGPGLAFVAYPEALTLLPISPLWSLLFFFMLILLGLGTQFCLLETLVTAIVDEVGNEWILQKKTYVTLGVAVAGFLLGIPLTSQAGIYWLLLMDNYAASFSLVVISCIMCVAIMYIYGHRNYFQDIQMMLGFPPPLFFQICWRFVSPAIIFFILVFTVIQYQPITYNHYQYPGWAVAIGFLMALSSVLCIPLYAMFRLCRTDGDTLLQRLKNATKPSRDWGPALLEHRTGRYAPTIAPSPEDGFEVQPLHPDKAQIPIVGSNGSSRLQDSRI
The assay can be described thus: [3H] Glycine Uptake Assay (SPA) in recombinant hGlyT1b-CHO cells. The assay is classed as cell-based. The conditions noted are these: Table 1. On the procedure:
A. [3H] Glycine Uptake Assay
Preparation of recombinant human GlyT1b-CHO cells (hGlyT1b-CHO). The human GlyT1b CDS (GC002087, NM_006934) was cloned downstream of a CMV promoter in a bicistronic expression vector containing a hygromycin B resistance gene. CHO-K1 cells (ATCC) were transfected with the recombinant vector containing GlyT1b using Lipofectamine 2000 (Invitrogen) and cultured in Ham's/F12 media supplemented with 10% fetal bovine serum, 2 mM L-glutamine at 37° C., 5% CO2, 90% humidity. Twenty-four hours after transfection, cells were diluted and switched to media containing 0.5 mg/ml hygromycin B. Antibiotic resistant cells were obtained after 21 days of culture in the presence of hygromycin B. Clonal stable cell lines were isolated by FACS single cell deposition into 96-well plates.
Cells used were Recombinant hGlyT1b/CHO. These cells were cultured in cell culture medium (Ham's/F12 (Modified) (Mediatech, 10-080-CM), containing 10% FBS, 2 mM L-glutamine (Invitrogen 25030-149) and 0.5 mg/mL hygromycin B (Invitrogen, 10687-010)) in 175 cm^2 flasks until near confluence before use in the assay.
Cell medium in a cell culture flask containing near confluent cells was removed and 5 mL of cell stripper was added to submerge all cells on the surface of the culture flask. Cell stripper was removed immediately and the flask incubated in a 37° C. incubator for ˜5 min. Cells were shaken loose and suspended in 5 mL of PBS. After splitting cells to initiate a new flask(s), the cells remaining were collected by centrifugation, counted, and resuspended in assay buffer to a density of ˜2 million/mL. The cell suspension was kept at room temperature before use. The assays buffer was 10 mM HEPES, pH 7.4, containing 150 mM NaCl, 5 mM KCl, 1.5 mM CaCl2, 1.5 mM MgCl2, 0.45 mg/mL L-alanine (added fresh), and 1.8 mg/mL D-glucose (added fresh).
WGA PTV beads were suspended in assay buffer (2 mg/ml) containing 60 nM [^3H]Glycine (PerkinElmer (NET-004, [2-^3H]Glycine, 53.3 Ci/mmol, 1 mCi/mL)) and 20 μM unlabeled glycine and the suspension was kept at room temperature before assay.
To the wells of an OptiPlate, 2 μl DMSO containing a test compound was spotted. This was followed by addition of 98 μl of cell suspension (˜1 million/ml final). After incubating cells with compound for ˜15 min, 100 μl of the SPA (200 μg/well final) and isotope mixture (30 nM isotope with 10 μM cold glycine, final) was added to initiate the glycine uptake. At 2 h, the plate was read on a TopCount to quantify SPA counts.
By IC50 is commonly meant the concentration at which inhibition is half-maximal. For `CN1C2CCC1([C@H](NC(=O)c1ccc(Cl)cc1Cl)c1ccccc1)CC2` (single isomer, unassigned) [Example 14, (R*)-2,4-dichloro-N((7-methy1-7-azabicyclo[2.2.1]heptan-1-yl)(phenyl)methyl)benzamide], the IC50 is 305 nM. The same measure, in the same setting: under `Cc1ccc(C(NC(=O)c2c(C)cccc2C)C23CCC(CC2)N3C)o1` (centres unmarked) [Example 9, 2,6-dimethyl-N-((7-methyl-7-azabicyclo[2.2.1]heptan-1-yl)(5-methylfuran-2-yl)methyl)benzamide] stands 98 nM. Same read-out and setting: under `Cc1cccc(C)c1C(=O)NC(c1cccc(Br)c1)C12CCC(CC1)N2C` (centres unmarked) [Example 8, N-((3-bromophenyl)(7-methyl-7-azabicyclo[2.2.1]heptan-1-yl)methyl)-2,6-dimethylbenzamide] stands 3 nM; under `CN1C2CCC1(C(NC(=O)c1ccnc(Cl)c1Cl)c1ccccc1)CC2` (single isomer, unassigned) [Example 15, (R*)-2,3-dichloro-N-((7-methyl-7-azabicyclo[2.2.1]heptan-1-yl)(phenyl)methyl)isonicotinamide], 210 nM.

The assay is the same for the next values; noted with them: Table 2, unit from table title.
`CCN1C2CCC1(C(NC(=O)c1cccnc1SC)c1ccccc1)CC2` (centres unmarked) [Example 51]: the IC50 stood at 107 nM. On the same count and under the same terms, under `Cc1cccc(C)c1C(=O)NC(c1cccc(C#N)c1)C12CCC(CC1)N2C` (centres unmarked) [Example 79] stands 87 nM; under `Cc1ccccc1C(=O)NC(c1ccccc1)C12CCC(CC1)N2C` (single isomer, unassigned) [Example 59], 38 nM; under `Cc1cccc(C)c1C(=O)NC(c1ccncc1)C12CCC(CC1)N2C` (centres unmarked) [Example 37], 6 nM. Still for that read-out and setting: under `Cc1cccc(C)c1C(=O)N[C@H](c1ccccc1)C12CCC(CC1)N2C[C@H]1CCCN1` [Example 80] stands 313 nM.

With `Cc1cccc(C)c1C(=O)NC(c1ccc(Br)cc1)C12CCC(CC1)N2C` (centres unmarked) [Example 90], the IC50 worked out at 4 nM.

For `CC(=O)Nc1cccc(C(NC(=O)c2c(C)cccc2C)C23CCC(CC2)N3C)c1` (centres unmarked) [Example 102], the IC50 amounted to 127 nM. As to `Cc1cccc(C)c1C(=O)NC(c1cccnc1)C12CCC(CC1)N2` (centres unmarked) [Example 60], the IC50 was found to be 30 nM.

As to `COCCCN1C2CCC1([C@H](NC(=O)c1c(C)cccc1C)c1ccccc1)CC2` [Example 28], the IC50 amounted to 12 nM.

`Cc1cccc(C)c1C(=O)NC(c1ccc(Br)cc1)C12CCC(CC1)N2` (centres unmarked) [Example 89]: the IC50 came out at 68 nM. Still for that read-out and setting: under `Cc1cccc(C)c1C(=O)NC(c1ccc(O)cc1)C12CCC(CC1)N2C` (centres unmarked) [Example 99] stands 6 nM.

In the case of `Cc1cccc(C)c1C(=O)N[C@H](c1ccccc1)C12CCC(CC1)N2CC1CCCO1` (some centres unmarked) [Example 56], the IC50 came to 4 nM. On the same count and under the same terms, under `Cc1cccc(C)c1C(=O)N[C@H](c1ccccc1)C12CCC(CC1)N2CCN1CCCC1` [Example 69] stands 51 nM; under `Cc1cccc(C)c1C(=O)NC(c1cccc(C(=O)N(C)C)c1)C12CCC(CC1)N2C` (centres unmarked) [Example 88], 57 nM. Still for that read-out and setting: under `COCCCN1C2CCC1(C(NC(=O)c1cccnc1SC)c1ccccc1)CC2` (centres unmarked) [Example 55] stands 310 nM; under `Cc1cccc(C)c1C(=O)N[C@H](c1ccccc1)C12CCC(CC1)N2CCN` [Example 40], 13 nM; under `CCCCc1cccc(C(NC(=O)c2c(C)cccc2C)C23CCC(CC2)N3C)c1` (centres unmarked) [Example 103], 119 nM. On the same count and under the same terms, to `CCc1ccccc1C(=O)N[C@H](c1ccccc1)C12CCC(CC1)N2CCOC` [Example 95] belongs 68 nM.

With `CCCCN1C2CCC1([C@H](NC(=O)c1c(C)cccc1C)c1ccccc1)CC2` [Example 27], the IC50 came out at 11 nM.

As for `Cc1ccc(C(NC(=O)c2c(C)cccc2C)C23CCC(CC2)N3C)o1` (single isomer, unassigned) [Example 87], the IC50 stood at 14 nM. With `CSc1ncccc1C(=O)NC(c1ccccc1)C12CCC(CC1)N2C1CCC1` (centres unmarked) [Example 44], the IC50 is 243 nM. On the same count and under the same terms, under `Cc1cccc(C)c1C(=O)NC(c1ccccc1)C12CCC(CC1)N2CC(C)C` (centres unmarked) [Example 22] stands 13 nM.
